We go through one molecule from BindingDB's records for doi:10.1021/np8001145 (Kaohsiung Medical University, 2008).

Structures are written as SMILES.

In general, IC50 refers to the concentration needed to halve the response being measured. The low end stands for inhibition by little substance, the high end for a need for much substance.

The target of the test is Xanthine dehydrogenase/oxidase (Homo sapiens, UniProt P47989). In words: Inhibition of xanthine oxidase.
Chain of Xanthine dehydrogenase/oxidase (P47989 whole entry): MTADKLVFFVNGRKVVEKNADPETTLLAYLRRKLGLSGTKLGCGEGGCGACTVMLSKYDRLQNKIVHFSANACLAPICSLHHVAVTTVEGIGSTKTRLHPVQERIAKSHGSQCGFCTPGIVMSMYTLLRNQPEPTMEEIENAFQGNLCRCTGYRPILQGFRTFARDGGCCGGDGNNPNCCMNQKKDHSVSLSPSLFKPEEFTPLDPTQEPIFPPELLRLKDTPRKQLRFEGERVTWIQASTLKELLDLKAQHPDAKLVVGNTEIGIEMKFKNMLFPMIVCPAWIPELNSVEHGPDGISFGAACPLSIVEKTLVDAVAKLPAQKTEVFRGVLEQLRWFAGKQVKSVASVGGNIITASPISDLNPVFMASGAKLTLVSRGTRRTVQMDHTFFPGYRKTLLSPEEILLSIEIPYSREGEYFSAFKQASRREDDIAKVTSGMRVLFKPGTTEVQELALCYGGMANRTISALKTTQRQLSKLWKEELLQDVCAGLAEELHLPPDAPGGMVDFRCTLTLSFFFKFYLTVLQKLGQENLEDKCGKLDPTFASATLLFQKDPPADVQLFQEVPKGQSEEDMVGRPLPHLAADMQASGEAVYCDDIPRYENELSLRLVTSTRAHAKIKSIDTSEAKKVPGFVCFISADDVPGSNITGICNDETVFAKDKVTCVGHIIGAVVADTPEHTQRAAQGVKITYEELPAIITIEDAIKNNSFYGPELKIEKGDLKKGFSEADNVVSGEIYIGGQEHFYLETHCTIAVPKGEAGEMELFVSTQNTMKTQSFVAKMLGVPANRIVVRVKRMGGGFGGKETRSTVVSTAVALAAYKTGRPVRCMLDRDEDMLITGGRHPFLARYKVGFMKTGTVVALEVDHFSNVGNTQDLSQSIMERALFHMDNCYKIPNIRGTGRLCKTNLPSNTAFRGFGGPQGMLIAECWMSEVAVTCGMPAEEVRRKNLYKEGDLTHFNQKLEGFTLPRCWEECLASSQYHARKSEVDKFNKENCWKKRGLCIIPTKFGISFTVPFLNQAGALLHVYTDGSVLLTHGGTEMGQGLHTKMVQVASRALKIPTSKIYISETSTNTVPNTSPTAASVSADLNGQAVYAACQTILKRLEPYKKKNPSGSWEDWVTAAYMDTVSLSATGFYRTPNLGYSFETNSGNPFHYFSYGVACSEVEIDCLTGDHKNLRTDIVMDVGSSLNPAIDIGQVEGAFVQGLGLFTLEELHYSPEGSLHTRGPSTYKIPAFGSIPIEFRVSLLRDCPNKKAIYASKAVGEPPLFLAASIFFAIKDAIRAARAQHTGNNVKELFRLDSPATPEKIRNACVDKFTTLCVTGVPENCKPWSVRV

Molecule `CCC(C)C(=O)C1C(=O)[C@@](C)(CC=C(C)C)C(=O)[C@@]2(C[C@H]3[C@H](CC[C@@]3(C)O)[C@](C)(O)C2)C1=O` (stereo partly specified) gave an IC50 of 42.1 µM.
